From US20050014849A1, “Antifungal phenylethylene” (priority 2001, published 2005)
Converted amounts (≈) assume the structure as drawn.

Legend:
C. neoformans ATCC 90112 = experiment: Broth macrodilution MIC/MFC; format: cell-based, Cryptococcus neoformans; details: for MFC / MIC: Cryptococcus neoformans
Procedure: (§1) TMPN was screened against yeasts by the broth macrodilution assay according to the NCCLS [7]. Yeasts were suspended and diluted as recommended to yield final inocula ranging from 0.5-2.5×10^3 cfu/ml. Tests were performed in sterile 12 by 75 mm plastic tubes containing two-fold dilutions of TMPN in 0.165 M morpholinepropanesulfonic acid buffered RPMI 1640 medium (pH 7.0). One tube was again left drug free (but contained an equivalent volume of DMSO) for a turbidity control. Tubes were incubated without agitation at the appropriate temperature (see Fungal Strains section above). MICs were determined after 72 h for Cryptococcus and after 48 h for other yeast genera. The MIC was defined as the lowest concentration of TMPN that inhibited all visible growth of the test organism (optically clear).
(§2) Minimum fungicidal concentrations (MFCs) were determined by subculturing 0.1 ml from each tube with no visible growth in the MIC broth macrodilution series onto the appropriate drug-free plates (see Fungal Strains section above).
Possible host effects were also evaluated. Broth macrodilution assays were performed with RPMI medium prepared at pH 5, pH 6, and pH 7, and in RPMI medium with and without 50% normal human serum (Lampire Biological Labs). The pH experiments were performed twice on separate days.

C. ater ATCC 14247 = experiment: Broth macrodilution MIC/MFC; format: cell-based, Cryptococcus ater
Procedure: as §1, §2

[1] = test system: C. uniguttulatus ATCC 34143; experiment: Broth macrodilution MIC/MFC; format: cell-based, Cryptococcus uniguttulatus
Procedure: as §1, §2

[2] = test system: C. uniguttulatus ATCC 66033; experiment: Broth macrodilution MIC/MFC; format: cell-based, Cryptococcus uniguttulatus
Procedure: as §1, §2

C. albidus ATCC 34140 = experiment: Broth macrodilution MIC/MFC; format: cell-based, Cryptococcus albidus
Procedure: as §1, §2

C. albidus ATCC 40666 = experiment: Broth macrodilution MIC/MFC; format: cell-based, Cryptococcus albidus
Procedure: as §1, §2

C. albidus ATCC 66030 = experiment: Broth macrodilution MIC/MFC; format: cell-based, Cryptococcus albidus
Procedure: as §1, §2

C. albicans ATCC 10231 = experiment: Broth macrodilution MIC/MFC; format: cell-based, Candida albicans
Procedure: as §1, §2

C. albicans ATCC 14053 = experiment: Broth macrodilution MIC/MFC; format: cell-based, Candida albicans
Procedure: as §1, §2

C. albicans ATCC 60193 = experiment: Broth macrodilution MIC/MFC; format: cell-based, Candida albicans
Procedure: as §1, §2

[3] = test system: Flucytosine-resistant C. albicans ATCC 32354; experiment: Broth macrodilution MIC/MFC; format: cell-based, Candida albicans
Procedure: as §1, §2

[4] = test system: Ketoconazole-resistant C. albicans ATCC 64124; experiment: Broth macrodilution MIC/MFC; format: cell-based, Candida albicans
Procedure: as §1, §2

C. glabrata (8) = experiment: Broth macrodilution MIC/MFC; format: cell-based, Candida glabrata
Procedure: as §1, §2

C. glabrata ATCC 2001 = experiment: Broth macrodilution MIC/MFC; format: cell-based, Candida glabrata
Procedure: as §1, §2

C. glabrata ATCC 90030 = experiment: Broth macrodilution MIC/MFC; format: cell-based, Candida glabrata
Procedure: as §1, §2

C. guilliermondii (9) = experiment: Broth macrodilution MIC/MFC; format: cell-based, Candida guilliermondii
Procedure: as §1, §2

C. krusei (10) = experiment: Broth macrodilution MIC/MFC; format: cell-based, Candida krusei
Procedure: as §1, §2

[5] = test system: Epidermophyton floccosum ATCC 52066; experiment: Broth macrodilution MIC/MFC; format: cell-based
A. nidulans strain FGSC4 = experiment: Broth macrodilution MIC/MFC, filamentous fungi; format: cell-based, Aspergillus nidulans
Procedure: Susceptibility testing of filamentous fungi was also conducted. Broth macrodilution susceptibility testing of P. lilacinus, Rhizopus spp. and Aspergillus spp. was performed in accordance with a proposed standardized procedure with slight modification. To induce conidium and sporangiospore formation, fungi were grown on PDA slants at 35° C. for 6 days (P. lilacinus, Rhizopus spp., all Aspergillus species except A. nidulans) or 3 days (A. nidulans). Fungal slants were covered with sterile 0.85% NaCl (P. lilacinus, Rhizopus spp., all Aspergillus species except A. nidulans) or 0.05% Tween 80 (A. nidulans), and suspensions were made by gently probing the colonies with the tip of a sterile Pasteur pipette. The resulting mixture of hyphal fragments and conidia or sporangiospores was withdrawn and transferred to a sterile clear microcentrifuge tube, and heavy particles were allowed to settle for 10 min. […] Susceptibility to TMPN was then determined by broth macrodilution as described above for yeast isolates. […]
as §2

[6] = ATCC90112, Cryptococcus neoformans ATCC 90112, 20 μg/ml bovine serum albumin
[7] = ATCC90112, Cryptococcus neoformans ATCC 90112, 40 μg/ml bovine serum albumin
[8] = ATCC90112, Cryptococcus neoformans ATCC 90112, no bovine serum albumin
[9] = ATCC90112, Cryptococcus neoformans ATCC 90112, no serum
[10] = ATCC90112, pH 5, Cryptococcus neoformans ATCC 90112, pH 5
[11] = ATCC90112, pH 5, Cryptococcus neoformans ATCC 90112, pH 5, repeat experiment
[12] = ATCC90112, pH 6, Cryptococcus neoformans ATCC 90112, pH 6
[13] = ATCC90112, pH 6, Cryptococcus neoformans ATCC 90112, pH 6, repeat experiment
[14] = ATCC90112, pH 7, Cryptococcus neoformans ATCC 90112, pH 7
[15] = ATCC90112, pH 7, Cryptococcus neoformans ATCC 90112, pH 7, repeat experiment

COc1cc(C=C[N+](=O)[O-])cc(OC)c1OC [TMPN, 1-(3′,4′,5′-trimethoxyphenyl)-2-nitro-ethylene] was tested, and the “MFC Range” value (C. neoformans ATCC 90112; C. neoformans ATCC 90112) was 4 µg/mL (≈ 16.7 µM), the “MIC Range” value (C. neoformans ATCC 90112; C. neoformans ATCC 90112) was 2 µg/mL (≈ 8.36 µM) and the MFC (C. neoformans ATCC 90112; [6]) was 4 µg/mL (≈ 16.7 µM). The MIC (C. neoformans ATCC 90112; [6]) was 4 µg/mL (≈ 16.7 µM), the MFC (C. neoformans ATCC 90112; [7]) was 4 µg/mL (≈ 16.7 µM) and the MIC (C. neoformans ATCC 90112; [7]) was 4 µg/mL (≈ 16.7 µM). For the same molecule, the MIC (C. neoformans ATCC 90112; ATCC90112, Cryptococcus neoformans ATCC 90112, 50% human serum) was over 64 µg/mL, the MFC (C. neoformans ATCC 90112; [8]) was 4 µg/mL (≈ 16.7 µM) and the MIC (C. neoformans ATCC 90112; [8]) was 2 µg/mL (≈ 8.36 µM). For the same molecule, the MFC (C. neoformans ATCC 90112; [9]) was 4 µg/mL (≈ 16.7 µM), the MIC (C. neoformans ATCC 90112; [9]) was 2 µg/mL (≈ 8.36 µM) and the MFC (C. neoformans ATCC 90112; [10]) was 4 µg/mL (≈ 16.7 µM). For the same molecule, the MIC (C. neoformans ATCC 90112; [10]) was 2 µg/mL (≈ 8.36 µM), the MFC (C. neoformans ATCC 90112; [11]) was 2 µg/mL (≈ 8.36 µM) and the MIC (C. neoformans ATCC 90112; [11]) was 1 µg/mL (≈ 4.18 µM). For the same molecule, the MFC (C. neoformans ATCC 90112; [12]) was 4 µg/mL (≈ 16.7 µM), the MIC (C. neoformans ATCC 90112; [12]) was 4 µg/mL (≈ 16.7 µM) and the MFC (C. neoformans ATCC 90112; [13]) was 4 µg/mL (≈ 16.7 µM). The MIC (C. neoformans ATCC 90112; [13]) was 4 µg/mL (≈ 16.7 µM), the MFC (C. neoformans ATCC 90112; [14]) was 4 µg/mL (≈ 16.7 µM) and the MIC (C. neoformans ATCC 90112; [14]) was 2 µg/mL (≈ 8.36 µM). For the same molecule, the MFC (C. neoformans ATCC 90112; [15]) was 4 µg/mL (≈ 16.7 µM), the MIC (C. neoformans ATCC 90112; [15]) was 2 µg/mL (≈ 8.36 µM) and the “MFC Range” value (C. ater ATCC 14247) was 16 µg/mL (≈ 66.9 µM). For the same molecule, the “MIC Range” value (C. ater ATCC 14247) was 8 µg/mL (≈ 33.4 µM), the “MFC Range” value [1] was 16 µg/mL (≈ 66.9 µM) and the “MIC Range” value [1] was 8 µg/mL (≈ 33.4 µM). The “MFC Range” value [2] was 32 µg/mL (≈ 134 µM), the “MIC Range” value [2] was 16 µg/mL (≈ 66.9 µM) and the “MFC Range” value (C. albidus ATCC 34140) was 32 µg/mL (≈ 134 µM). The “MIC Range” value (C. albidus ATCC 34140) was 32 µg/mL (≈ 134 µM), the “MFC Range” value (C. albidus ATCC 40666) was 32 µg/mL (≈ 134 µM) and the “MIC Range” value (C. albidus ATCC 40666) was 8 µg/mL (≈ 33.4 µM). For the same molecule, the “MFC Range” value (C. albidus ATCC 66030) was 16 µg/mL (≈ 66.9 µM), the “MIC Range” value (C. albidus ATCC 66030) was 8 µg/mL (≈ 33.4 µM) and the “MFC Range” value (C. albicans ATCC 10231) was 8 µg/mL (≈ 33.4 µM). For the same molecule, the “MIC Range” value (C. albicans ATCC 10231) was 8 µg/mL (≈ 33.4 µM), the “MFC Range” value (C. albicans ATCC 14053) was 16 µg/mL (≈ 66.9 µM) and the “MIC Range” value (C. albicans ATCC 14053) was 16 µg/mL (≈ 66.9 µM). For the same molecule, the “MFC Range” value (C. albicans ATCC 60193) was 16 µg/mL (≈ 66.9 µM), the “MIC Range” value (C. albicans ATCC 60193) was 16 µg/mL (≈ 66.9 µM) and the “MFC Range” value [3] was 16 µg/mL (≈ 66.9 µM). The “MIC Range” value [3] was 16 µg/mL (≈ 66.9 µM), the “MFC Range” value [4] was 32 µg/mL (≈ 134 µM) and the “MIC Range” value [4] was 16 µg/mL (≈ 66.9 µM). For the same molecule, the “MIC Range” value (C. glabrata (8)) was 8 to 32 µg/mL, the “MFC Range” value (C. glabrata ATCC 2001) was 16 µg/mL (≈ 66.9 µM) and the “MIC Range” value (C. glabrata ATCC 2001) was 8 µg/mL (≈ 33.4 µM). For the same molecule, the “MFC Range” value (C. glabrata ATCC 90030) was 16 µg/mL (≈ 66.9 µM), the “MIC Range” value (C. glabrata ATCC 90030) was 4 µg/mL (≈ 16.7 µM) and the “MFC Range” value (C. guilliermondii (9)) was over 64 µg/mL. For the same molecule, the “MFC 50% (MFC at which 50% of the strains are killed)” value (C. krusei (10); C. krusei (10)) was 32 µg/mL, the “MFC 90% (MFC at which 90% of the strains are killed)” value (C. krusei (10); C. krusei (10)) was 32 µg/mL and the “MFC Range” value (C. krusei (10); C. krusei (10)) was 16 to 64 µg/mL. For the same molecule, the “MIC Range” value (C. krusei (10); C. krusei (10)) was 8 to 16 µg/mL, the “share of isolates with MFC/MIC ratio <2” value (C. krusei (10); C. krusei clinical isolates) was 70% and the MIC50 (C. krusei (10); Pichia kudriavzevii, C. krusei (10), read-out: MIC 50% (MIC at which 50% of the strains are inhibited)) was 8 µg/mL (≈ 33.4 µM). The MIC90 (C. krusei (10); Pichia kudriavzevii, C. krusei (10), read-out: MIC 90% (MIC at which 90% of the strains are inhibited)) was 16 µg/mL (≈ 66.9 µM), the “MIC Range” value [5] was 2 µg/mL (≈ 8.36 µM) and the “MFC Range” value (A. nidulans strain FGSC4) was 16 µg/mL (≈ 66.9 µM). For the same molecule, the “MIC Range” value (A. nidulans strain FGSC4) was 8 µg/mL (≈ 33.4 µM).
